From patent publication US20240182531A1, “KV1.3 Blockers” (priority 2021, published 2024) come the findings set out here.

The IC50 is the point on the concentration scale where inhibition reaches its midpoint. A low value points to greater potency in that assay.

Where a SMILES comes first, the peptide text is derived from it. Bridges are numbered along the chain shown (N, C = ends). [ ]: non-standard residue; d: D form. Nle = CCCC[C@H](N)C(=O)O; Abu = CC[C@H](N)C(=O)O

T2 sequence (Q09470 whole entry): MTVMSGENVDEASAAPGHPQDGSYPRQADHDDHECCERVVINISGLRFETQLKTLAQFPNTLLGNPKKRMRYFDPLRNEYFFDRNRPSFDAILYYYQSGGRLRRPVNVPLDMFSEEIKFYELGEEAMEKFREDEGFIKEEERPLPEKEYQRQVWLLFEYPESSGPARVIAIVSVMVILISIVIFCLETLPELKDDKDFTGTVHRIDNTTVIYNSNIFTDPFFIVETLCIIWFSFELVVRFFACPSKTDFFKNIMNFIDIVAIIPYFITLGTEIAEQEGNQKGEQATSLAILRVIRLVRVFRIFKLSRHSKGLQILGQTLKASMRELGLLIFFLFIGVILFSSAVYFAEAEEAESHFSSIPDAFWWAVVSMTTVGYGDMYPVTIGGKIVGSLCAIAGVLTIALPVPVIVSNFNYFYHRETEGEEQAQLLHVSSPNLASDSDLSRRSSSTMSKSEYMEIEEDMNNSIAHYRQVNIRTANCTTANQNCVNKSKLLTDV

In one experiment the target is T1, human Kv1.2 (Homo sapiens, UniProt P16389).
T1 construct: expressed in transfected cells; host or cells: CHO
T1 sequence (P16389 whole entry): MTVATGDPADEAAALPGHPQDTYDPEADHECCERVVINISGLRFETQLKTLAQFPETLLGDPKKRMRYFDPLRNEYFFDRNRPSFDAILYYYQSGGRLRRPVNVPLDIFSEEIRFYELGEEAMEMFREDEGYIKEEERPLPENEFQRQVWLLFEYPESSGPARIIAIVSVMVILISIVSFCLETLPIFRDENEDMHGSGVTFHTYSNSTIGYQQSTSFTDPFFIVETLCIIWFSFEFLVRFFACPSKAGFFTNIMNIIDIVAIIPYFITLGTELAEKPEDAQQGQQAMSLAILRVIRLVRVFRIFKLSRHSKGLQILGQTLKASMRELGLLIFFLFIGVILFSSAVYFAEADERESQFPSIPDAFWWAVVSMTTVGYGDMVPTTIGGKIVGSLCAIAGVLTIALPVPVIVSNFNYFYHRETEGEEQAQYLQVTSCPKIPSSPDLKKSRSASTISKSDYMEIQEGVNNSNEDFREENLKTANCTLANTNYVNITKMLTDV
The experiment in a line: cell-based. The note with it: ratio of patch clamp IC50 values.
For `CC[C@H](C)[C@@H]1NC(=O)[C@H](C)NC(=O)[C@H](CCCCN)NC(=O)[C@H](CC(C)C)NC(=O)[C@@H]2CSSC[C@@H](C(=O)N[C@@H](Cc3ccc(O)cc3)C(=O)N3CCC[C@H]3C(=O)N[C@@H](CCCNC(=N)N)C(=O)O)NC(=O)[C@H](CCCCN)NC(=O)[C@@H]3CSSC[C@H](NC(=O)[C@H](CCC(=O)O)NC(=O)[C@H](C(C)C)NC(=O)[C@H](CO)NC(=O)[C@H](C)NC(=O)[C@H](CO)NC(=O)[C@@H](NC(=O)[C@H](CCCNC(=N)N)NC(=O)[C@H](CCSC)NC(=O)[C@H](CC(=O)O)NC(=O)[C@H](CCSC)NC(=O)[C@@H](N)CCC(N)=O)CSSC[C@H](NC(=O)[C@H](CCCCN)NC(=O)CNC(=O)[C@H](Cc4ccccc4)NC(=O)CNC(=O)[C@H](CCCNC(=N)N)NC(=O)CNC1=O)C(=O)N[C@@H](CCSC)C(=O)N[C@@H](CC(N)=O)C(=O)N[C@@H](CCCCN)C(=O)N[C@@H](CCCCN)C(=O)N3)C(=O)N[C@@H](CCCCN)C(=O)N[C@@H](CCC(N)=O)C(=O)N[C@@H](CCCCN)C(=O)N2` [compound 16] (H-QMDMRCSASVECKQKCLKAIGRGFGKCMNKKCKCYPR-OH; disulfide 6-27, 12-32, 16-34), the “Selectivity ratio Kv1.2/Kv1.3” value worked out at 65.
Same read-out and setting: with `CC[C@H](C)[C@@H]1NC(=O)[C@H](C)NC(=O)[C@H](CCCCN)NC(=O)[C@H](CC(C)C)NC(=O)[C@@H]2CSSC[C@@H](C(=O)N[C@@H](Cc3ccc(O)cc3)C(=O)N3CCC[C@H]3C(=O)N[C@@H](CCCNC(=N)N)C(=O)O)NC(=O)[C@H](CCCCN)NC(=O)[C@@H]3CSSC[C@H](NC(=O)[C@H](CCC(=O)O)NC(=O)[C@H](C(C)C)NC(=O)[C@H](CO)NC(=O)[C@H](C)NC(=O)[C@H](CO)NC(=O)[C@@H](NC(=O)[C@H](CCCNC(=N)N)NC(=O)[C@H](CCSC)NC(=O)[C@H](CC(=O)O)NC(=O)[C@@H](N)CCSC)CSSC[C@H](NC(=O)[C@H](CCCCN)NC(=O)CNC(=O)[C@H](Cc4ccccc4)NC(=O)[C@H]([C@@H](C)CC)NC(=O)[C@H](CO)NC(=O)CNC1=O)C(=O)N[C@@H](CCSC)C(=O)N[C@@H](CC(N)=O)C(=O)N[C@@H](CCCCN)C(=O)N[C@@H](CCCCN)C(=O)N3)C(=O)N[C@@H](CCCCN)C(=O)N[C@@H](CCC(N)=O)C(=O)N[C@@H](CCCCN)C(=O)N2` [compound 18] (H-MDMRCSASVECKQKCLKAIGSIFGKCMNKKCKCYPR-OH; disulfide 5-26, 11-31, 15-33) the figure was 747.

The next experiment deals with Rat whole blood (Rattus norvegicus, UniProt P15384).
Chain of Rat whole blood (P15384 whole entry): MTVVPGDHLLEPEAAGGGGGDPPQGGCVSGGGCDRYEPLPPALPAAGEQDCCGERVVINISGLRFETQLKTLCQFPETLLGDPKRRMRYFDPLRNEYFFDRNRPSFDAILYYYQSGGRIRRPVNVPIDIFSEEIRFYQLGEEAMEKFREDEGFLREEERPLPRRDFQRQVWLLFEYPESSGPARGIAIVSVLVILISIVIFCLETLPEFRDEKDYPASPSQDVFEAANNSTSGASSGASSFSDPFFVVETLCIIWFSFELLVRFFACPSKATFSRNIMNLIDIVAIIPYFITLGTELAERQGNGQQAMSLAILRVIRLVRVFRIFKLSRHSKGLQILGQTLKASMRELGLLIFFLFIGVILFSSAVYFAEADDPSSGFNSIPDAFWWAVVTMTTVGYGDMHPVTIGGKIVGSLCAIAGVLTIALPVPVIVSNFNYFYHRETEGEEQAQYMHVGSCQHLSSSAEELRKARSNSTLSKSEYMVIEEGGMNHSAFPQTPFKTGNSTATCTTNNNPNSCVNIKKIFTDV
Test: not given
It is filed as cell-based. The note with it: IL-17A release, thapsigargin, 24 Hr, at least 2 replicates.
Compound “H-CSASVECKQKCLKAIGCIFGKC[Nle]NKKCKCYPC-NH2 (cysteine pairing not given here) [compound 84]” displayed an IC50 of 1.1 nM.
Regarding “H-LRCSASVECKQKCLKAIGSIFGKC[Nle]NKKCKCYPR-OH (cysteine pairing not given here) [compound 103]”, the IC50 was found to be 2.1 nM.
On to “H-N[Nle]D[Nle]RCSASVECEQKCLKAIGSIFGKC[Nle]NKKCKCYPR-NH2 (cysteine pairing not given here) [compound 47]”, for which 0.99 nM corresponded to half-maximal inhibition (IC50).
With “H-N[Nle]D[Nle]RCSASVECQQKCLKAIGSIFGKC[Nle]NKKCKCYPR-NH2 (cysteine pairing not given here) [compound 48]”, inhibition was half-maximal at 1.1 nM (IC50).
On to “H-PIDERCSASVECKQKCLAAIGSIFGKC[Nle]NKKCKCYPR-OH (cysteine pairing not given here) [compound 94]”, for which 0.87 nM corresponded to half-maximal inhibition (IC50).
“H-P[Nle]D[Nle]RCSASVECAQKCLAAIGSIFGKCMNKKCKCYPR-OH (cysteine pairing not given here) [compound 96]” returned an IC50 of 0.32 nM.
On the same count and under the same terms, as for “H-P[Nle]D[Nle]RCSASVECKEKCL[homo-Gln]AIGSIFGKC[Nle]NKKCKCYPR-NH2 [compound 83]”, the figure is 1.4 nM.
“H-P[Nle]D[Nle]RCSASVECKQKCLKAIGCIFGKC[Nle]NKKCKCYPC-OH (cysteine pairing not given here) [compound 86]” showed an IC50 of 1.1 nM.
Turning to “H-P[Nle]E[Nle]RCSASVECKQKCLLAIGSIFGKC[Nle]NKKCKCYPR-OH (cysteine pairing not given here) [compound 93]”, 0.5 nM corresponded to half-maximal inhibition (IC50).
Regarding “H-S[Nle]D[Nle]RCSASVECKEKCLQAIGSIFGKC[Nle]NKKCKCYPR-NH2 (cysteine pairing not given here) [compound 82]”, inhibition was half-maximal at 0.69 nM (IC50).
On the same count and under the same terms, with “H-S[Nle]D[Nle]RCSASVECKQKCLAAIGCIFGKC[Nle]NKKCKCYPC-NH2 (cysteine pairing not given here) [compound 85]” the figure was 0.73 nM; with “H-S[Nle]D[Nle]RCSASVECKQKCLKAIGSIFGKCMNKKCKCYQ-NH2 (cysteine pairing not given here) [compound 74]”, 1.6 nM; with “H-S[Nle]D[Nle]RCSASVECKQKCLKAIGSIFGKCMNKKCKC[F(4-CH3)]PR-NH2 [compound 89]”, 0.54 nM.
In turn, “H-S[Nle]D[Nle]RCSASVECKQKCLKAIGSIFGKCMNKKCKC[F(4-F)]PR-NH2 [compound 87]” registered an IC50 of 0.34 nM.
“H-S[Nle]D[Nle]RCSASVECKQKCLKAIGSIFGKCMNKKCKC[F(4-NO2)]PR-NH2 [compound 88]”: the IC50 was determined as 1.3 nM.
As to “H-S[Nle]D[Nle]RCSASVECKQKCLKAIGSIFGKC[Nle]NKKCKCYPR-OH (cysteine pairing not given here) [compound 80]”, the IC50 came to 0.52 nM.
Take “H-S[Nle]D[Nle]RCSASVECKQKCLKAIGSIFG[homo-Lys]CMNKKCKCYPR-NH2 [compound 69]”: the IC50 was 2.7 nM.
“H-S[Nle]D[Nle]RCSASVECKQKCLVAIGSIFGKCMNKKCKCYPR-NH2 (cysteine pairing not given here) [compound 77]” returned a half-maximal inhibitory concentration (IC50) of 0.39 nM.
On the same count and under the same terms, with “H-S[Nle]D[Nle]RCSASVECK[2-Amino-5-carboxypentanoyl]KCLKAIGSIFGKCMNKKCKCYPR-NH2 [compound 73]” the figure was 0.52 nM; with “H-S[Nle]D[Nle]RCSASVECVQKCLKAIGSIFGKCMNKKCKCYPR-NH2 (cysteine pairing not given here) [compound 72]”, 0.47 nM; with “H-S[Nle]D[Nle]RCSA[Abu]VECKQKCLKAIGSIFGKCMNKKCKCYPR-NH2 (cysteine pairing not given here) [compound 68]”, 0.93 nM.
Compound “LRCSASVECKQKCLAAIGSIFGKCMNKKCKCYPR [compound 105]” registered an IC50 of 0.36 nM.
The same measure, in the same setting: as for “NMDMRCSASVECKQKCLKAIGSIFGKCMNKKCVCYPR [compound 42]”, the figure is 2.8 nM.
In the case of “NMDMRCSASVECKQKCLKAIHSIFGKCMNKKCKCYPR [compound 37]”, half-maximal inhibition (IC50) was put at 0.7 nM.

Another experiment has as its target T2, human Kv1.1 (Homo sapiens, UniProt Q09470).
T2 construct: expressed in transfected cells; host or cells: CHO
Kind of experiment: cell-based. The note with it: ratio of patch clamp IC50 values. (In general: Patch clamp records ionic current or voltage across a cell membrane.)
As for `CC[C@H](C)[C@@H]1NC(=O)[C@H](C)NC(=O)[C@H](CCCCN)NC(=O)[C@H](CC(C)C)NC(=O)[C@@H]2CSSC[C@@H](C(=O)N[C@@H](Cc3ccc(O)cc3)C(=O)N3CCC[C@H]3C(=O)N[C@@H](CCCNC(=N)N)C(=O)O)NC(=O)[C@H](CCCCN)NC(=O)[C@@H]3CSSC[C@H](NC(=O)[C@H](CCC(=O)O)NC(=O)[C@H](C(C)C)NC(=O)[C@H](CO)NC(=O)[C@H](C)NC(=O)[C@H](CO)NC(=O)[C@@H](NC(=O)[C@H](CCCNC(=N)N)NC(=O)[C@H](CCSC)NC(=O)[C@H](CC(=O)O)NC(=O)[C@H](CCSC)NC(=O)[C@@H](N)CCC(N)=O)CSSC[C@H](NC(=O)[C@H](CCCCN)NC(=O)CNC(=O)[C@H](Cc4ccccc4)NC(=O)CNC(=O)[C@H](CCCNC(=N)N)NC(=O)CNC1=O)C(=O)N[C@@H](CCSC)C(=O)N[C@@H](CC(N)=O)C(=O)N[C@@H](CCCCN)C(=O)N[C@@H](CCCCN)C(=O)N3)C(=O)N[C@@H](CCCCN)C(=O)N[C@@H](CCC(N)=O)C(=O)N[C@@H](CCCCN)C(=O)N2` [compound 16] (H-QMDMRCSASVECKQKCLKAIGRGFGKCMNKKCKCYPR-OH; disulfide 6-27, 12-32, 16-34), the “Selectivity ratio Kv1.1/Kv1.3” value is given as above 2000.
For the compound `CC[C@H](C)[C@@H]1NC(=O)[C@H](C)NC(=O)[C@H](CCCCN)NC(=O)[C@H](CC(C)C)NC(=O)[C@@H]2CSSC[C@@H](C(=O)N[C@@H](Cc3ccc(O)cc3)C(=O)N3CCC[C@H]3C(=O)N[C@@H](CCCNC(=N)N)C(=O)O)NC(=O)[C@H](CCCCN)NC(=O)[C@@H]3CSSC[C@H](NC(=O)[C@H](CCC(=O)O)NC(=O)[C@H](C(C)C)NC(=O)[C@H](CO)NC(=O)[C@H](C)NC(=O)[C@H](CO)NC(=O)[C@@H](NC(=O)[C@H](CCCNC(=N)N)NC(=O)[C@H](CCSC)NC(=O)[C@H](CC(=O)O)NC(=O)[C@@H](N)CCSC)CSSC[C@H](NC(=O)[C@H](CCCCN)NC(=O)CNC(=O)[C@H](Cc4ccccc4)NC(=O)[C@H]([C@@H](C)CC)NC(=O)[C@H](CO)NC(=O)CNC1=O)C(=O)N[C@@H](CCSC)C(=O)N[C@@H](CC(N)=O)C(=O)N[C@@H](CCCCN)C(=O)N[C@@H](CCCCN)C(=O)N3)C(=O)N[C@@H](CCCCN)C(=O)N[C@@H](CCC(N)=O)C(=O)N[C@@H](CCCCN)C(=O)N2` [compound 18] (H-MDMRCSASVECKQKCLKAIGSIFGKCMNKKCKCYPR-OH; disulfide 5-26, 11-31, 15-33), the “Selectivity ratio Kv1.1/Kv1.3” value was above 7900.

The target in the next experiment is T3, human Kv1.6 (Homo sapiens, UniProt P17658).
T3 construct: expressed in transfected cells; host or cells: CHO
T3 sequence (P17658 whole entry): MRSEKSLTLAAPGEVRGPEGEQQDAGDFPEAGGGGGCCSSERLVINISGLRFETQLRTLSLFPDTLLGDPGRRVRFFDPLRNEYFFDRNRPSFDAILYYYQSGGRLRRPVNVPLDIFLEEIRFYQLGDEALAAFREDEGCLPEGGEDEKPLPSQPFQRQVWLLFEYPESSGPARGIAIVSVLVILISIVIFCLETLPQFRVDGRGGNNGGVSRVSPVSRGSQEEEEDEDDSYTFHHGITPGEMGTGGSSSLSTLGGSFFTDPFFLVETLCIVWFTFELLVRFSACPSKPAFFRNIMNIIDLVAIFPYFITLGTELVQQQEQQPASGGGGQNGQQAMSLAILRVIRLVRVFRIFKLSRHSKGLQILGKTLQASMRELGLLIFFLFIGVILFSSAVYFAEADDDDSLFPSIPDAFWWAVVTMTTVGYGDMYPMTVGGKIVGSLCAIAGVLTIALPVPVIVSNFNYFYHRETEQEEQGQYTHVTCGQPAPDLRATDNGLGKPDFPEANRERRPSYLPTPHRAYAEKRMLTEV
The experiment in a line: cell-based. The note with it: ratio of patch clamp IC50 values.
Consider `CC[C@H](C)[C@@H]1NC(=O)[C@H](C)NC(=O)[C@H](CCCCN)NC(=O)[C@H](CC(C)C)NC(=O)[C@@H]2CSSC[C@@H](C(=O)N[C@@H](Cc3ccc(O)cc3)C(=O)N3CCC[C@H]3C(=O)N[C@@H](CCCNC(=N)N)C(=O)O)NC(=O)[C@H](CCCCN)NC(=O)[C@@H]3CSSC[C@H](NC(=O)[C@H](CCC(=O)O)NC(=O)[C@H](C(C)C)NC(=O)[C@H](CO)NC(=O)[C@H](C)NC(=O)[C@H](CO)NC(=O)[C@@H](NC(=O)[C@H](CCCNC(=N)N)NC(=O)[C@H](CCSC)NC(=O)[C@H](CC(=O)O)NC(=O)[C@H](CCSC)NC(=O)[C@@H](N)CCC(N)=O)CSSC[C@H](NC(=O)[C@H](CCCCN)NC(=O)CNC(=O)[C@H](Cc4ccccc4)NC(=O)CNC(=O)[C@H](CCCNC(=N)N)NC(=O)CNC1=O)C(=O)N[C@@H](CCSC)C(=O)N[C@@H](CC(N)=O)C(=O)N[C@@H](CCCCN)C(=O)N[C@@H](CCCCN)C(=O)N3)C(=O)N[C@@H](CCCCN)C(=O)N[C@@H](CCC(N)=O)C(=O)N[C@@H](CCCCN)C(=O)N2` [compound 16] (H-QMDMRCSASVECKQKCLKAIGRGFGKCMNKKCKCYPR-OH; disulfide 6-27, 12-32, 16-34), for which the “Selectivity ratio Kv1.6/Kv1.3” value is given as 1204.
For the compound `CC[C@H](C)[C@@H]1NC(=O)[C@H](C)NC(=O)[C@H](CCCCN)NC(=O)[C@H](CC(C)C)NC(=O)[C@@H]2CSSC[C@@H](C(=O)N[C@@H](Cc3ccc(O)cc3)C(=O)N3CCC[C@H]3C(=O)N[C@@H](CCCNC(=N)N)C(=O)O)NC(=O)[C@H](CCCCN)NC(=O)[C@@H]3CSSC[C@H](NC(=O)[C@H](CCC(=O)O)NC(=O)[C@H](C(C)C)NC(=O)[C@H](CO)NC(=O)[C@H](C)NC(=O)[C@H](CO)NC(=O)[C@@H](NC(=O)[C@H](CCCNC(=N)N)NC(=O)[C@H](CCSC)NC(=O)[C@H](CC(=O)O)NC(=O)[C@@H](N)CCSC)CSSC[C@H](NC(=O)[C@H](CCCCN)NC(=O)CNC(=O)[C@H](Cc4ccccc4)NC(=O)[C@H]([C@@H](C)CC)NC(=O)[C@H](CO)NC(=O)CNC1=O)C(=O)N[C@@H](CCSC)C(=O)N[C@@H](CC(N)=O)C(=O)N[C@@H](CCCCN)C(=O)N[C@@H](CCCCN)C(=O)N3)C(=O)N[C@@H](CCCCN)C(=O)N[C@@H](CCC(N)=O)C(=O)N[C@@H](CCCCN)C(=O)N2` [compound 18] (H-MDMRCSASVECKQKCLKAIGSIFGKCMNKKCKCYPR-OH; disulfide 5-26, 11-31, 15-33), the “Selectivity ratio Kv1.6/Kv1.3” value was above 7900.
